This is an account of results in patent EP0288055B1, “Use of ODC inhibitors, dacarbazine, and interferon, in the treatment of malignant melanoma” (MERRELL DOW PHARMACEUTICALS INC., priority 1987, dated 1988).

The % Inhibition is the percentage by which the read-out fell short of the control.

In this test the test system is B16 melanoma. In words: Effect on the growth of B16 melanoma in mice (tumor weight at sacrifice). In kind it is in vivo. The note with it: for Tumor Weight (g) (Mean ± S.E.): B16 melanoma cells (1 x 10^5 cells/animal) S.C., tumors weighed on day 18, DFMO 2% in drinking water day 1-18, DTIC 6.25 mg/Kg i.p. once daily day 1-15, IFN 1000 units/animal S.C. alternate days day 2-18; for % Inhibition: inhibition of tumor weight vs control on day 18, same dosing as for tumor weight. From the text:
EFFECT OF A COMBINATION OF α-DIFLUOROMETHYLORNITHINE (DFMO), DACARBAZINE (DTIC) AND α-INTERFERON (IFN) ON THE GROWTH OF B16 MELANOMA IN MICE

On to `NCCC[C@](N)(C(=O)O)C(F)F` [DFMO, α-difluoromethyl ornithine], for which the “Tumor Weight (g) (Mean ± S.E.)” value turned out to be 1.02 ± 0.15 g and the “% Inhibition” value stood at 86.0%.

In the case of `CN(C)N=Nc1[nH]cnc1C(N)=O` [DTIC, 5-(3,3-Dimethyl-1-triazenyl)-1H-imidazole-4-carboxamide], the “Tumor Weight (g) (Mean ± S.E.)” value turned out to be 3.2 ± 0.63 g and the “% Inhibition” value is on record as 35.0%.
